Results as given in PubChem BioAssay AID1845213 (Molecular Pharmacology Branch, DTP, NCI, 2023).

System: NCI-H841 complex tumor spheroid viability
Test: Anticancer human tumor NCI-H841 cell line growth inhibition;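 also: spheroids exposed to compounds for 7 days before readout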;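 as to viability, T/C: 100% = DMSO vehicle control wells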
Details: for IC50: curve of first compound; for viability, T/C: stronger effect = lower value
Outline: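 Complex spheroids of malignant cells with endothelial cells and mesenchymal stem cells; agents alone or combined, from near clinical Cmax (or 10 microM if unknown) down in half-log steps, 0.25% DMSO final.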

[1] = second compound 30 pM, first compound 0.00949 µM
[2] = second compound 30 pM, first compound 0.03 µM
[3] = second compound 30 pM, first compound 0.0949 µM
[4] = second compound 30 pM, first compound 0.3 µM
[5] = second compound 30 pM, first compound 0.949 µM
[6] = second compound 30 pM, first compound 3 µM
[7] = second compound 94.9 pM, first compound 0.00949 µM
[8] = second compound 94.9 pM, first compound 0.03 µM
[9] = second compound 94.9 pM, first compound 0.0949 µM
[10] = second compound 94.9 pM, first compound 0.3 µM
[11] = second compound 94.9 pM, first compound 0.949 µM
[12] = second compound 94.9 pM, first compound 3 µM
[13] = second compound 0.0003 µM, first compound 0.00949 µM
[14] = second compound 0.0003 µM, first compound 0.03 µM
[15] = second compound 0.0003 µM, first compound 0.0949 µM
[16] = second compound 0.0003 µM, first compound 0.3 µM
[17] = second compound 0.0003 µM, first compound 0.949 µM
[18] = second compound 0.0003 µM, first compound 3 µM
[19] = second compound 0.000949 µM, first compound 0.00949 µM
[20] = second compound 0.000949 µM, first compound 0.03 µM
[21] = second compound 0.000949 µM, first compound 0.0949 µM
[22] = second compound 0.000949 µM, first compound 0.3 µM
[23] = second compound 0.000949 µM, first compound 0.949 µM
[24] = second compound 0.000949 µM, first compound 3 µM
[25] = second compound 0.003 µM, first compound 0.00949 µM
[26] = second compound 0.003 µM, first compound 0.03 µM
[27] = second compound 0.003 µM, first compound 0.0949 µM
[28] = second compound 0.003 µM, first compound 0.3 µM
[29] = second compound 0.003 µM, first compound 0.949 µM
[30] = second compound 0.003 µM, first compound 3 µM

Compound | IC50 (second compound 30 pM) | IC50 (second compound 94.9 pM) | IC50 (second compound 0.0003 µM) | IC50 (second compound 0.000949 µM) | IC50 (second compound 0.003 µM) | viability, T/C [3] | viability, T/C [4] | viability, T/C [5] | viability, T/C [6] | viability, T/C [9] | viability, T/C [10] | viability, T/C [11] | viability, T/C [12] | viability, T/C [15] | viability, T/C [16] | viability, T/C [17] | viability, T/C [18] | viability, T/C [21] | viability, T/C [22] | viability, T/C [23] | other results
CNCc1ccc(-c2cc(-c3nc(-c4ccc(S(=O)(=O)C(C)C)cc4)cnc3N)on2)cc1 + COc1cc2c(cc1O)CCNC21CSC2c3c(OC(C)=O)c(C)c4c(c3C(COC1=O)N1C(O)C3Cc5cc(C)c(OC)c(O)c5C(C21)N3C)OCO4 | 205 nM | 136 nM | < 9.49 nM | < 9.49 nM | < 9.49 nM | 86.8% | 31.6% | 7.14% | 1.78% | 66.2% | 13.6% | 2.49% | 1.05% | 7.38% | 1.78% | 1.69% | 0.41% | 1.25% | 0.59% | 0.5% | viability, T/C [1]: 97.6%; viability, T/C [2]: 99.6%; viability, T/C [7]: 93.8%; viability, T/C [8]: 92.6%; viability, T/C [13]: 44.8%; viability, T/C [14]: 28.3%; viability, T/C [19]: 2.86%; viability, T/C [20]: 2.26%; viability, T/C [24]: 0.09%; viability, T/C [25]: 0.1%; viability, T/C [26]: 0.1%; viability, T/C [27]: 0.09%; viability, T/C [28]: 0.1%; viability, T/C [29]: 0.09%; viability, T/C [30]: 0.15%
Cn1ncnc1[C@H]1c2n[nH]c(=O)c3cc(F)cc(c23)N[C@@H]1c1ccc(F)cc1 + COc1cc2c(cc1O)CCNC21CSC2c3c(OC(C)=O)c(C)c4c(c3C(COC1=O)N1C(O)C3Cc5cc(C)c(OC)c(O)c5C(C21)N3C)OCO4 | 514 nM | 252 nM | < 9.49 nM | < 9.49 nM | < 9.49 nM | 86.4% | 71.3% | 26.4% | 1.05% | 66.1% | 51.5% | 11% | 1.19% | 7.64% | 2.97% | 1.63% | 1.27% | 2.75% | 2.82% | 2.18% | viability, T/C [1]: 94%; viability, T/C [2]: 91.6%; viability, T/C [7]: 85.6%; viability, T/C [8]: 76.5%; viability, T/C [13]: 16.7%; viability, T/C [14]: 9.8%; viability, T/C [19]: 3.02%; viability, T/C [20]: 3.35%; viability, T/C [24]: 0.23%; viability, T/C [25]: 0.11%; viability, T/C [26]: 0.12%; viability, T/C [27]: 0.12%; viability, T/C [28]: 0.1%; viability, T/C [29]: 0.1%; viability, T/C [30]: 0.19%
O=C(c1cc(Cc2n[nH]c(=O)c3ccccc23)ccc1F)N1CCN(C(=O)C2CC2)CC1 + COc1cc2c(cc1O)CCNC21CSC2c3c(OC(C)=O)c(C)c4c(c3C(COC1=O)N1C(O)C3Cc5cc(C)c(OC)c(O)c5C(C21)N3C)OCO4 | 4580 nM | 3050 nM | < 94.9 nM | < 94.9 nM | < 94.9 nM | 107% | 105% | 101% | 77% | 97.5% | 97.8% | 87.4% | 52.1% | 27.4% | 22.1% | 18.2% | 2.51% | 3.77% | 4.04% | 2.93% | viability, T/C (second compound 30 pM, first compound 9.49 µM): 3.12%; viability, T/C (second compound 30 pM, first compound 30 µM): 1.74%; viability, T/C (second compound 94.9 pM, first compound 9.49 µM): 1.93%; viability, T/C (second compound 94.9 pM, first compound 30 µM): 1.27%; viability, T/C (second compound 0.0003 µM, first compound 9.49 µM): 1.17%; viability, T/C (second compound 0.0003 µM, first compound 30 µM): 0.76%; viability, T/C [24]: 0.82%; viability, T/C (second compound 0.000949 µM, first compound 9.49 µM): 0.32%; viability, T/C (second compound 0.000949 µM, first compound 30 µM): 0.11%; viability, T/C [27]: 7.31%; viability, T/C [28]: 0.2%; viability, T/C [29]: 0.13%; viability, T/C [30]: 0.12%; viability, T/C (second compound 0.003 µM, first compound 9.49 µM): 0.14%; viability, T/C (second compound 0.003 µM, first compound 30 µM): 0.29%
